Results as given in publication PMC3299254 (International Journal of Microbiology, 2012).
Like-named read-outs stand apart in the source and are kept apart here. No end group written: not given here.

Legend:
[1] = test system: Pseudomonas aeruginosa CMCC10104; type: cell-based; conditions: for MIC: Pseudomonas aeruginosa CMCC10104, microtiter dilution, LB medium without salt, 10^4-10^5 CFU/mL, 37°C, 24 h, OD620, Table 2
Procedure: (§1) All strains were cultured on Mueller-Hinton medium.

human erythrocytes = test: Minimum hemolytic concentration (MHC); type: cell-based
Procedure: The MHCs were measured by the method as described in Chen et al.: peptides were added to 1% human erythrocytes in phosphate-buffered saline (0.08 mol/L NaCl, 0.043 mol/L Na2HPO4, 0.011 mol/L KH2PO4) and then kept at 37°C for 1 h in microtiter plates. The supernatants were collected by centrifugation (800 g), and the OD562 of each supernatant was determined. We chose a 0.1% Triton X-100 solution as the positive control because this solution causes the total release of hemoglobin. We defined the MHC as the highest peptide concentration that caused no detectable release of hemoglobin (the ratio of the OD562 for the peptide solution to the OD562 for the positive control should be less than 1%).

[2] = Circular dichroism, percentage helicity; type: physicochemical; conditions: CD, 100 μM peptide, 10 mM sodium phosphate pH 7.5, 50% trifluoroethanol
Procedure: CD spectra were obtained with a Jasco J-710 instrument (Jasco, Tokyo, Japan) utilizing quartz cells with a 2 mm path length and peptide concentrations of 100 μM in a 10 mM sodium phosphate buffer with a pH of 7.5 containing 50% trifluoroethanol. Each spectrum was obtained from an average of 5 pairs of duplicates, and the percentage helicity of each peptide was determined.
The hydrophobic moments were determined with the HeliQuest web server, which can be used to evaluate amphipathicity. The percent helix values were determined based on CD spectra.

[3] = test system: Acinetobacter baumannii clinical isolates; type: cell-based; conditions: microtiter dilution, 37°C, 24 h, OD620
Procedure: as §1

[4] = test system: Bacillus pumilus CMCC63202; conditions: microtiter dilution, 37°C, 24 h, OD620
Source text: (§2) Twenty-two clinical isolates and night standard laboratory strains were used in this study: 4 Acinetobacter baumannii, 4 Pseudomonas aeruginosa, 3 Staphylococcus epidermidis, and 6 Klebsiella pneumonia (Changhai Hospital, Shanghai, China); 5 methicillin-resistance Staphylococcus aureus (Ruijin Hospital, Shanghai, China); Staphylococcus aureus CMCC26003; Bacillus subtilis DB430;Bacillus pumilus CMCC63202; Micrococcus luteus CMCC28001; E. coli ATCC8099; Klebsiella pneumoniae CMCC46117;Salmonella paratyphi B CMCC50094; Pseudomonas aeruginosa CMCC10104; Micrococcus S1.634. In addition, Pseudomonas aeruginosa CMCC10104 was used during the design of the peptides for evaluating antimicrobial activities. All strains were cultured on Mueller-Hinton medium.
(§3) The antibacterial activities of the different peptides were evaluated using the minimum inhibitory concentration (MIC). The process followed the standard microtiter dilution method in LB medium without salt. Briefly, bacteria were grown overnight in LB at 37°C and diluted in the same medium. Then, 100 μL of the medium was dispensed into each well of a 96-well plate. The number of bacteria was between 10^4 and 10^5 CFU/mL. Serial dilutions of peptides were performed consecutively in each well in 10 μL. Plates were incubated at 37°C for 24 h; then, the OD620 was measured to determine the MIC of each peptide.

Bacillus subtilis DB430 = conditions: microtiter dilution, 37°C, 24 h, OD620
Source text: as §2, §3

E. coli ATCC8099 = conditions: microtiter dilution, 37°C, 24 h, OD620
Source text: as §2, §3

[5] = test system: Gram-positive and Gram-negative bacteria and 22 clinical isolates; conditions: overall statement
Source text: as §2, §3

[6] = test system: Klebsiella pneumonia clinical isolates; conditions: range over 6 clinical isolates
Source text: as §2, §3

[7] = test system: Klebsiella pneumoniae CMCC46117; conditions: microtiter dilution, 37°C, 24 h, OD620
Source text: as §2, §3

MRSA clinical isolates = conditions: range over 5 clinical MRSA isolates
Source text: as §2, §3

[8] = test system: Micrococcus luteus CMCC28001; conditions: microtiter dilution, 37°C, 24 h, OD620
Source text: as §2, §3

[9] = test system: Pseudomonas aeruginosa clinical isolates; conditions: range over 4 clinical isolates
Source text: as §2, §3

[10] = test system: Salmonella paratyphi B CMCC50094; conditions: microtiter dilution, 37°C, 24 h, OD620
Source text: as §2, §3

[11] = test system: Soluble wall Micrococcus S1.634; conditions: microtiter dilution, 37°C, 24 h, OD620
Source text: as §2, §3

[12] = test system: Staphylococcus aureus CMCC26003; conditions: microtiter dilution, 37°C, 24 h, OD620
Source text: as §2, §3

[13] = test system: Staphylococcus epidermidis clinical isolates; conditions: range over 3 clinical isolates
Source text: as §2, §3

[14] = MHC/MIC ratio, MHC human erythrocytes, MIC Pseudomonas aeruginosa
[15] = 1% human erythrocytes in PBS, 37°C, 1 h, OD562, highest concentration with no detectable hemoglobin release (<1% of 0.1% Triton X-100)

## KWKSFIKKLTSKFLHSANKF-NH2 [Peptide N18, S16 derivative by single amino acid substitution]
[1]; [14]
  Therapeutic index: 80
[1]
  MIC: 6.25 µg/mL
Human erythrocytes; [15]
  MHC: >500 µg/mL
[2]
  %Helix: 37.2%

## KWKSFIKKLLSKFLHSAKKF-NH2 [Peptide L10]
[1]; [14]
  Therapeutic index: 10
[1]
  MIC: 12.5 µg/mL
Human erythrocytes; [15]
  MHC: <125 µg/mL

## KWKSFIKKLTSKFLHLAKKF-NH2 [CP-P]
[1]; [14]
  Therapeutic index: 20
[1]
  MIC: 12.5 µg/mL
Human erythrocytes; [15]
  MHC: 250 µg/mL

## KWKSFIKKLTLKFLHSKKKF-NH2 [Peptide L11, S16 derivative by single amino acid substitution]
[1]
  MIC: >50 µg/mL

## KWKSFINKLTSKFLHSAKKF-NH2 [Peptide N7]
[1]; [14]
  Therapeutic index: 40
[1]
  MIC: 12.5 µg/mL
Human erythrocytes; [15]
  MHC: >500 µg/mL

## KWKSFIKKLTSKALHSAKKF-NH2 [Peptide A13, S16 derivative by single amino acid substitution]
[1]; [14]
  Therapeutic index: 80
[1]
  MIC: 6.25 µg/mL
Human erythrocytes; [15]
  MHC: >500 µg/mL
[2]
  %Helix: 45.9%

## KWKSFIKKRTSKFLHSAKKF-NH2 [Peptide R9]
[1]
  MIC: >50 µg/mL

## KWKSFIKKLTSKFLHSAKKN-NH2 [Peptide N20]
[1]; [14]
  Therapeutic index: 80
[1]
  MIC: 6.25 µg/mL
Human erythrocytes; [15]
  MHC: >500 µg/mL

## KWKSFIKKLTSKFLHSAKKF-NH2 [Peptide S16]
[3]; clinical isolate b-01
  MIC: 3.125 µg/mL
[3]; clinical isolate b-02
  MIC: 6.25 µg/mL
[3]; clinical isolate b-03
  MIC: 6.25 µg/mL
[3]; clinical isolate b-04
  MIC: 3.125 µg/mL
[1]; [14]
  Therapeutic index: 160
[1]
  MIC: 3.125 µg/mL
Human erythrocytes; [15]
  MHC: >500 µg/mL

## KWKSFIKKSTSKFLHSAKKF-NH2 [Peptide S9]
[1]; [14]
  Therapeutic index: 10
[1]
  MIC: 50 µg/mL
Human erythrocytes; [15]
  MHC: >500 µg/mL

## KFKSFIKKLTSKFLHSAKKF-NH2 [Peptide F2]
[1]; [14]
  Therapeutic index: 20
[1]
  MIC: 12.5 µg/mL
Human erythrocytes; [15]
  MHC: 250 µg/mL

## KWKSFIKKLTSKKLHSAKKF-NH2 [Peptide K13]
[1]
  MIC: >50 µg/mL

## KWKSFIKKLTSKFLHSKKKF-NH2 [Peptide K17]
[1]; [14]
  Therapeutic index: 40
[1]
  MIC: 12.5 µg/mL
Human erythrocytes; [15]
  MHC: >500 µg/mL

## KWKLFKKIPKFLHLAKKF-NH2 [Peptide P18, reference compound]
[3]; clinical isolate b-01
  MIC: 6.25 µg/mL
[3]; clinical isolate b-02
  MIC: 25 µg/mL
[3]; clinical isolate b-03
  MIC: 12.5 µg/mL
[3]; clinical isolate b-04
  MIC: 12.5 µg/mL
[1]; CMCC10104, 24 h
  Therapeutic index: 10
[1]
  MIC: 25 µg/mL
Human erythrocytes
  MHC: 250 µg/mL

## KWKSFIKKLTDKFLHSAKKF-NH2 [Peptide D11]
[1]; [14]
  Therapeutic index: 20
[1]
  MIC: 25 µg/mL
Human erythrocytes; [15]
  MHC: >500 µg/mL

## KWKSFIKKKTSKFLHSAKKF-NH2 [Peptide K9]
[1]
  MIC: >50 µg/mL

## KWKSFIKKLTKKFLHSAKKF-NH2 [Peptide K11]
[3]; clinical isolate b-01
  MIC: 0.8 µg/mL
[3]; clinical isolate b-02
  MIC: 3.125 µg/mL
[3]; clinical isolate b-04
  MIC: 1.6 µg/mL
[1]; [14]
  Therapeutic index: 320
[1]
  MIC: 1.6 µg/mL
[4]
  MIC: 0.5 µg/mL
Bacillus subtilis DB430
  MIC: 2 µg/mL
E. coli ATCC8099
  MIC: 0.5 µg/mL
[5]
  MICs: less than 10 μg/mL
[6]
  MIC: 0.5−4.0 μg/mL
[7]
  MIC: 2 µg/mL
MRSA clinical isolates
  MIC: 0.25−4 μg/mL
[8]
  MIC: 2 µg/mL
[9]
  MIC: 1.0−8.0 μg/mL
[10]
  MIC: 2 µg/mL
[11]
  MIC: 1 µg/mL
[12]
  MIC: 0.5 µg/mL
[13]
  MIC: 0.5−8 μg/mL

## KWKSFIKKAKTSFLHSAKKF-NH2 [Peptide A9]
[1]; [14]
  Therapeutic index: 20
[1]
  MIC: 25 µg/mL
Human erythrocytes; [15]
  MHC: >500 µg/mL

## KWKSFIKKLASKFLHSAKKF-NH2 [Peptide A10, S16 derivative by single amino acid substitution]
[1]; [14]
  Therapeutic index: 20
[1]
  MIC: 12.5 µg/mL
Human erythrocytes; [15]
  MHC: 250 µg/mL
[2]
  %Helix: 72.5%

## KWKSFKKKLTSKFLHSAKKF-NH2 [Peptide K6]
[1]
  MIC: 12.5 µg/mL

## KWKSFIKKLTSKFLHSADKF-NH2 [Peptide D18]
[1]; [14]
  Therapeutic index: 20
[1]
  MIC: 25 µg/mL
Human erythrocytes; [15]
  MHC: >500 µg/mL

## KWNSFIKKLTSKFLHSAKKF-NH2 [Peptide N3]
[1]
  MIC: 12.5 µg/mL
